Reference: patent US20100069326A1, “Combination Therapies to Treat Cardio- and Cerebro-Vascular Disorders” (priority 2008, published 2010)
Where two headings read alike, the source gives them in different places.

Legend:
[1] = test system: Male Wistar rats with unilateral MCAO (cerebral ischemia); assay: Rat stroke model (permanent MCA occlusion), infarct volume assessment; format: in vivo; conditions: triflusal 30 mg/kg alone, 3 days after unilateral MCAO; for Infarct volume: three days, mean±SEM
Procedure: Male Wistar rats (265-360 g) were randomly divided into four treatment groups (n=5-9 for each group). Prior to and following surgery rats were housed in single cages (12/12 h light/dark cycle) and were fed at libitum. Prior to surgery, all rats were anaesthetized with a single dose of sodium pentobarbital (60 mg/kg ip) and placed in a David Kopf stereotaxic apparatus. Rectal temperatures were monitored and maintained constant at 37° C. by a heating pad while the rats were under anesthesia. The right MCA was exposed. […] Removal of a portion of the bone and exposure and ligation of the MCA was done with the aid of an operating stereomicroscope. Immediately following surgery, rats received one of the following treatments: 30 mg/kg triflusal or 30 mg/kg triflusal and 200 mg/kg dipyridamole or 10 mg/kg triflusal and 200 mg/kg dipyridamole or vehicle only for next three days. Three days after surgery, all animals were euthanized via pentobarbital overdose and perfused transaortically first with saline which was immediately followed by a low perfusion for about 1 h with 2% solution of triphenyl-tetrazolium chloride (TTC) that is followed by 4% formaldehyde (pH 7.4). The brains were removed and coronal sections (1 mm) were cut for infarct measurement. Investigator was blind to the sample treatment. Serial brain sections were examined and the areas of infarcted tissue were measured (SigmaScan […].0, SPSS Inc., Chicago Ill., USA). In addition, the hemispheric areas of each tissue section were measured to account for any brain swelling that might have occurred following cerebral ischemia. The volume of the infarct was calculated in mm^3 by integrating the infarct sizes for each of the tissue sections that contained infarcted tissue. The 1 mm sections were photographed using a Nikon digital camera. Results are expressed as mean±SEM of each measure. The volumes of the infarcts for each of the groups were compared by Student's unpaired two-tailed t tests. Significance was set at p≦0.05. Correlations between parameters were tested by linear regression analysis

[2] = test system: rat middle cerebral artery occlusion (MCAO) model of stroke; conditions: cited from earlier work; for reducing infarct size (in words): dose of 30 mg/kg, triflusal versus aspirin
cAMP phosphodiesterase = conditions: compared with aspirin; cited from earlier work

Structure (SMILES) | Infarct volume [1] | Infarct volume ([1]; listed as triflusal) | Infarct reduction ([1]; vs vehicle) | reducing infarct size (in words) [2] | infarct reduction in the MCAO model ([2]; triflusal 10 mg/kg/day, not significant neuroprotection) | infarct reduction in the MCAO model ([2]; triflusal 30 mg/kg/day, significant neuroprotection) | potency as inhibitor of cAMP phosphodiesterase relative to aspirin (cAMP phosphodiesterase)
CC(=O)Oc1cc(C(F)(F)F)ccc1C(=O)O [Triflusal, 2-acetoxy-4-trifluoromethylbenzoic acid] | 73.59 ± 7.0 mm^3 | 73.59±7.0 mm^3 | 30.72 ± 6.6% | equally effective | 12.56% | 43.95% | five times more potent
CC(=O)Oc1ccccc1C(=O)O [aspirin] |  |  |  | equally effective |  |  | 
